Columns and labels:
human fibroblasts = test: Screening assay for cell proliferation (CYQUANT); format: cell-based; settings: Fibroblast, 72 hours, n=4 replicate experiments, FIG. 6
Protocol: Fibroblasts at 70-90% confluency are trypsinized, replated at 600 cells/well in media in 96-well plates and allowed to attachment overnight. […] Each drug concentration is tested in triplicate wells.
To terminate the assay, the media is removed by gentle aspiration. […] Plates are incubated at room temperature, protected from light for 3-5 minutes.

THP-1 cells = test: TNF-alpha production by macrophages (ELISA); format: cell-based, human; settings: 1 mg/mL opsonized zymosan, 24 hours, n=4, FIG. 8, read-out: IC50 TNFα production
Protocol: The human macrophage cell line, THP-1 is plated in a 12 well plate such that each well contains 1×10^6 cells in 2 mL of media containing 10% FCS. Opsonized zymosan is prepared by resuspending 20 mg of zymosan A in 2 mL of ddH2O and homogenizing until a uniform suspension is obtained. Homogenized zymosan is pelleted at 250 g and resuspended in 4 mL of human serum for a final concentration of 5 mg/mL. and incubated in a 37° C. water bath for 20 minutes to enable opsonization. Bay 11-7082 is prepared in DMSO at a concentration of 10^−2 M and serially diluted 10-fold to give a range of stock concentrations (10^−8 M to 10^−2 M) (J. Immunol. (2000) 165: 411-418; J. Immunol. (2000) 164: 4804-4811; J. Immunol. Meth. (2000) 235 (1-2): 33-40).
THP-1 cells are stimulated to produce TNFα by the addition of 1 mg/mL opsonized zymosan. […]
After a 24 hour stimulation, supernatants are collected to quantify TNFα production. TNFα concentrations in the supernatants are determined by ELISA using recombinant human TNFα to obtain a standard curve. […] The dilution of Capture Antibody used is lot-specific and is determined empirically. […] Stop Solution (2 NH2SO4) is then added to the wells and a yellow colour reaction is read at 450 nm with λ correction at 570 nm. Mean absorbance is determined from triplicate data readings and the mean background is subtracted. […]

Structure (SMILES)	IC50 (human fibroblasts) [nM]	IC50 (THP-1 cells) [nM]
O=C1c2c(O)ccc(O)c2C(=O)c2c(NCCNCCO)ccc(NCCNCCO)c21 [Mitoxantrone, 9,10-Anthracenedione, 1,4-dihydroxy-5,8-bis[[2-[(2-hydroxyethyl)amino]ethyl]amino]-]	20	
Cc1ccc(S(=O)(=O)/C=C/C#N)cc1 [Bay 11-7082]		810
